The supplement of paper PMC10307832

Experiments:
Assay in all cases: relative viability (nuclei count vs DMSO), 5 days (fraction); higher = more cells survive
[1] = compound: CC(=O)c1c(C)c2cnc(Nc3ccc(N4CCNCC4)cn3)nc2n(C2CCCC2)c1=O [Palbociclib] + O=C(CCCCCCC(=O)Nc1ccccc1)NO [Vorinostat] (partner 1 µM)
In short: (§1)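 Values are medians from duplicate plates. Each reflects relative viability, defined as the nuclei count of treated wells over that of vehicle wells. Lung cancer cell lines in 1536-well plates were pin-tool dosed one day after seeding with one drug alone or with a fixed anchor-drug dose plus five library-drug doses (not always all listed) in √10 steps, then fixed, stained and imaged at 4× after 5 days.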

[2] = compound: CC(=O)c1c(C)c2cnc(Nc3ccc(N4CCNCC4)cn3)nc2n(C2CCCC2)c1=O [Palbociclib] + COc1cc2c(Oc3ccc(NC(=O)C4(C(=O)Nc5ccc(F)cc5)CC4)cc3F)ccnc2cc1OCCCN1CCOCC1 [Foretinib] (partner 0.25 µM)
In short: as §1

[3] = compound: CC(=O)c1c(C)c2cnc(Nc3ccc(N4CCNCC4)cn3)nc2n(C2CCCC2)c1=O [Palbociclib] + Cc1nc(NC(=O)N2CCC[C@H]2C(N)=O)sc1-c1ccnc(C(C)(C)C(F)(F)F)c1 [Alpelisib] (partner 2 µM)
In short: as §1

[4] = compound: CC(=O)c1c(C)c2cnc(Nc3ccc(N4CCNCC4)cn3)nc2n(C2CCCC2)c1=O [Palbociclib] + N=C(N)NC(=N)NCCc1ccccc1 [Phenformin] (partner 250 µM)
In short: as §1

Row | Cell Line | relative viability ([1]; first compound 0.01 µM) | relative viability ([1]; first compound 0.03162 µM) | relative viability ([1]; first compound 0.1 µM) | relative viability ([1]; first compound 0.3162 µM) | relative viability ([1]; first compound 1 µM) | relative viability ([2]; first compound 0.01 µM) | relative viability ([2]; first compound 0.1 µM) | relative viability ([2]; first compound 0.3162 µM) | relative viability ([2]; first compound 1 µM) | relative viability ([3]; first compound 0.01 µM) | relative viability ([3]; first compound 0.03162 µM) | relative viability ([3]; first compound 0.1 µM) | relative viability ([3]; first compound 0.3162 µM) | relative viability ([3]; first compound 1 µM) | relative viability ([4]; first compound 0.01 µM) | relative viability ([4]; first compound 0.1 µM) | relative viability ([4]; first compound 0.3162 µM) | relative viability ([4]; first compound 1 µM) | relative viability ([2]; first compound 0.03162 µM) | relative viability ([4]; first compound 0.03162 µM)
1 | NCI-H1793 | 0.824 | 0.564 | 0.531 | 0.664 | 0.287 | 0.689 | 0.713 | 0.617 | 0.355 | 0.749 | 0.73 | 0.687 | 0.487 | 0.547 | 0.28 | 0.336 | 0.309 | 0.173 |  | 
2 | PC-14 | 0.804 | 0.629 | 0.576 | 0.673 | 0.416 | 0.944 | 0.819 | 0.868 | 0.733 | 1.02 | 0.936 | 0.782 | 0.762 | 0.671 | 0.817 | 0.549 | 0.528 | 0.282 | 0.865 | 
3 | SW 900 | 0.524 |  | 0.385 | 0.415 | 0.389 | 0.902 | 0.844 | 0.649 | 0.625 |  |  |  |  |  | 0.632 | 0.435 | 0.448 | 0.298 |  | 
4 | HCC-78 | 0.502 | 0.38 | 0.415 | 0.418 | 0.299 | 0.54 | 0.481 | 0.509 | 0.364 | 0.305 | 0.242 | 0.217 | 0.263 | 0.216 | 0.727 | 0.554 | 0.44 | 0.318 | 0.453 | 0.624
5 | LC-2-ad | 0.712 | 0.351 | 0.561 | 0.561 | 0.475 | 0.909 | 0.687 | 0.687 | 0.481 | 0.876 |  | 0.701 | 0.641 | 0.463 | 0.573 | 0.523 | 0.414 | 0.383 |  | 
6 | NCI-H1755 | 0.721 | 0.62 | 0.489 | 0.606 | 0.491 | 0.928 | 0.819 | 0.801 | 0.578 | 0.949 | 0.855 | 0.802 | 0.766 | 0.575 | 0.626 | 0.495 | 0.53 | 0.405 | 0.893 | 0.433
7 | NCI-H358 | 0.73 | 0.475 | 0.413 | 0.449 | 0.199 | 0.718 | 0.523 | 0.412 | 0.226 | 0.777 | 0.709 | 0.395 | 0.312 | 0.257 | 0.308 | 0.197 | 0.238 | 0.106 | 0.545 | 0.278
8 | A549 |  |  |  |  |  | 0.925 | 0.754 | 0.635 | 0.43 | 0.741 | 0.651 | 0.486 | 0.356 | 0.254 | 0.205 | 0.11 | 0.129 | 0.096 | 0.831 | 0.0665
9 | NCI-H1299 |  |  |  |  |  | 1.05 | 1.02 | 0.942 | 0.754 | 1 | 1.02 | 0.949 | 0.956 | 0.865 |  |  |  |  | 0.996 | 
10 | NCI-H727 | 1.25 | 1.03 | 1.01 | 1.01 | 0.909 | 0.879 | 0.636 | 0.596 | 0.5 | 0.579 | 0.425 | 0.348 | 0.335 | 0.326 | 0.472 | 0.422 | 0.467 | 0.362 | 0.727 | 0.453
11 | A-427 | 0.855 | 0.789 | 0.711 | 0.652 | 0.527 | 0.944 | 0.993 | 0.729 | 0.607 | 1.08 | 0.951 | 0.929 | 0.893 | 0.816 | 0.392 | 0.282 | 0.269 | 0.212 | 1.01 | 0.2
12 | BEN | 0.568 | 0.542 | 0.509 | 0.58 | 0.517 | 0.729 | 0.607 | 0.556 | 0.376 | 1.04 | 0.847 | 0.634 | 0.834 | 0.499 | 0.285 | 0.237 | 0.249 | 0.257 | 0.422 | 0.243
13 | Calu-6 |  |  |  |  |  | 0.879 | 0.714 | 0.672 | 0.463 | 0.817 | 0.864 | 0.751 | 0.695 | 0.465 |  |  |  |  | 0.808 | 
14 | NCI-H596 | 0.656 | 0.655 | 0.589 | 0.768 | 0.57 | 0.996 | 0.836 | 0.821 | 0.953 | 0.555 | 0.462 | 0.498 | 0.477 | 0.525 | 0.982 | 0.757 | 0.712 | 0.673 |  | 
15 | NCI-H1792 |  |  |  |  |  |  |  |  |  | 0.679 | 0.603 | 0.543 | 0.637 | 0.408 | 0.389 | 0.209 | 0.193 | 0.1 |  | 0.237
16 | IA-LM | 0.955 |  | 0.661 | 0.724 | 0.312 | 1.06 | 0.862 | 0.514 | 0.313 | 0.826 | 0.675 | 0.456 | 0.373 | 0.144 |  |  |  |  | 0.959 | 
17 | NCI-H1648 | 0.869 | 0.426 | 0.386 | 0.388 | 0.398 |  |  |  |  |  |  |  |  |  |  |  |  |  |  | 
18 | HCC-44 | 1.09 | 1.08 | 1.15 | 1.03 | 1.13 |  |  |  |  | 0.728 | 0.789 | 0.819 | 0.798 | 0.774 | 0.234 | 0.171 | 0.223 | 0.204 |  | 
19 | ChaGo-K-1 | 0.726 |  | 0.696 | 0.721 | 0.746 | 0.928 | 1.1 | 0.959 | 0.977 |  |  |  |  |  | 0.484 | 0.503 | 0.458 | 0.524 | 0.797 | 0.376
20 | NCI-H1650 | 0.607 | 0.558 | 0.523 | 0.39 | 0.31 | 1.3 | 0.954 | 0.934 | 0.65 |  |  |  |  |  | 0.45 | 0.289 | 0.348 | 0.233 | 0.808 | 0.251
21 | NCI-H1703 |  |  |  |  |  | 0.259 | 0.287 | 0.28 | 0.292 | 0.298 | 0.346 | 0.301 | 0.231 | 0.182 |  |  |  |  | 0.308 | 
